# ChEMBL document CHEMBL1201861, “Genomics of Drug Sensitity in Cancer screening data, Wellcome Trust Sanger Institute”
# Experiments:
# Type in all cases: functional, cell-based
# [1] = test system: D-423MG; experiment: cells; conditions: Homo sapiens
# Description: SANGER: Inhibition of human D-423MG cell growth in a cell viability assay.
# [2] = test system: D-566MG; experiment: cells; conditions: Homo sapiens
# [3] = test system: ECC10; experiment: cells; conditions: Homo sapiens;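 further: growth inhibition of ECC10 cells, read out by a cell viability assay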
# Description: SANGER: Inhibition of human ECC10 cell growth in a cell viability assay.
# [4] = test system: EPLC-272H; experiment: cells; conditions: Homo sapiens
# Description: SANGER: Inhibition of human EPLC-272H cell growth in a cell viability assay.
# [5] = test system: H-EMC-SS; experiment: cells; conditions: Homo sapiens
# Description: SANGER: Inhibition of human H-EMC-SS cell growth in a cell viability assay.
# [6] = test system: H9; experiment: cells; conditions: Homo sapiens
# Description: SANGER: Inhibition of human H9 cell growth in a cell viability assay.
# [7] = test system: KNS-62; experiment: cells; conditions: Homo sapiens;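 further: inhibition of cell growth, read out with a cell viability assay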
# Description: SANGER: Inhibition of human KNS-62 cell growth in a cell viability assay.
# [8] = test system: LU-135; experiment: cells; conditions: Homo sapiens
# Description: SANGER: Inhibition of human LU-135 cell growth in a cell viability assay.
# [9] = test system: NBsusSR; experiment: cells; conditions: Homo sapiens;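 further: growth inhibition of the human cell line, read out with a cell viability assay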
# Description: SANGER: Inhibition of human NBsusSR cell growth in a cell viability assay.
# [10] = test system: NCI-H1048; experiment: cells; conditions: Homo sapiens;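 further: growth inhibition of human NCI-H1048 cells, read out with a cell viability assay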
# Description: SANGER: Inhibition of human NCI-H1048 cell growth in a cell viability assay.
# [11] = test system: NCI-H1666; experiment: cells; conditions: Homo sapiens;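 further: growth inhibition of the cell line, read out with a cell viability assay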
# Description: SANGER: Inhibition of human NCI-H1666 cell growth in a cell viability assay.
# [12] = test system: NCI-H2029; experiment: cells; conditions: Homo sapiens;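 further: Read-out is a viability assay on the cultured cells, and IC50 is the concentration that suppresses cell growth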
# Description: SANGER: Inhibition of human NCI-H2029 cell growth in a cell viability assay.
# [13] = test system: NCI-H2291; experiment: cells; conditions: Homo sapiens
# Description: SANGER: Inhibition of human NCI-H2291 cell growth in a cell viability assay.
# [14] = test system: OC-314; experiment: cells; conditions: Homo sapiens
# Description: SANGER: Inhibition of human OC-314 cell growth in a cell viability assay.
# [15] = test system: RH-18; experiment: cells; conditions: Homo sapiens, Rh18;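 further: growth inhibition of human RH-18 cells, read out with a cell viability assay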
# Description: SANGER: Inhibition of human RH-18 cell growth in a cell viability assay.
# [16] = test system: SW 1116; experiment: cells; conditions: Homo sapiens;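 further: growth inhibition of SW1116 cells, read out with a cell viability assay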
# Description: SANGER: Inhibition of human SW1116 cell growth in a cell viability assay.
# [17] = test system: SW900; experiment: cells; conditions: Homo sapiens;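 further: IC50 is the concentration that inhibits SW900 cell growth, measured by a cell viability assay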
# Description: SANGER: Inhibition of human SW900 cell growth in a cell viability assay.
# [18] = test system: A549; experiment: cells; conditions: Homo sapiens;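 further: growth inhibition of A549 cells, read out with a cell viability assay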
# Description: SANGER: Inhibition of human A549 cell growth in a cell viability assay.
# [19] = test system: BALL-1; experiment: cells; conditions: Homo sapiens;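 further: growth inhibition of BALL-1 cells, read out with a cell viability assay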
# Description: SANGER: Inhibition of human BALL-1 cell growth in a cell viability assay.
# [20] = test system: TGBC11TKB; experiment: cells; conditions: Homo sapiens;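 further: growth inhibition of human TGBC11TKB cells, measured by a cell viability assay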
# Description: SANGER: Inhibition of human TGBC11TKB cell growth in a cell viability assay.
# [21] = test system: ZR-75-30; experiment: cells; conditions: Homo sapiens;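 further: growth inhibition of ZR-75-30 cells, measured with a cell viability readout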
# Description: SANGER: Inhibition of human ZR-75-30 cell growth in a cell viability assay.
# [22] = test system: CFPAC-1; experiment: cells; conditions: Homo sapiens;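 further: cell viability readout used to gauge suppression of CFPAC-1 cell proliferation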
# Description: SANGER: Inhibition of human CFPAC-1 cell growth in a cell viability assay.
# [23] = test system: CP67-MEL; experiment: SANGER: Inhibition of human CP67-MEL cell growth in a cell viability assay.
# [24] = test system: EW-12; experiment: SANGER: Inhibition of human EW-12 cell growth in a cell viability assay.
# [25] = test system: KP-N-RT-BM-1; experiment: SANGER: Inhibition of human KP-N-RT-BM-1 cell growth in a cell viability assay.
# [26] = test system: NCI-H128; experiment: SANGER: Inhibition of human NCI-H128 cell growth in a cell viability assay.
# [27] = test system: NCI-H2107; experiment: SANGER: Inhibition of human NCI-H2107 cell growth in a cell viability assay.
# [28] = test system: SKM-1; experiment: SANGER: Inhibition of human SKM-1 cell growth in a cell viability assay.
# [29] = test system: Calu-1; experiment: SANGER: Inhibition of human Calu-1 cell growth in a cell viability assay.
# [30] = test system: Caov-3 cell line; experiment: cells; conditions: Homo sapiens;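 further: cell growth inhibition read out by a viability assay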
# Description: SANGER: Inhibition of human Caov-3 cell growth in a cell viability assay.
# [31] = test system: DMS-53; experiment: cells; conditions: Homo sapiens;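 further: cell viability assay measuring growth inhibition of human DMS-53 cells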
# Description: SANGER: Inhibition of human DMS-53 cell growth in a cell viability assay.
# [32] = test system: DV-90; experiment: cells; conditions: Homo sapiens;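 further: Read-out is a viability assay, with IC50 reflecting the drop in DV-90 cell growth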
# Description: SANGER: Inhibition of human DV-90 cell growth in a cell viability assay.
# [33] = test system: EFE-184; experiment: cells; conditions: Homo sapiens
# Description: SANGER: Inhibition of human EFE-184 cell growth in a cell viability assay.
# [34] = test system: HCC1143; experiment: cells; conditions: Homo sapiens;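 further: growth inhibition of human HCC1143 cells, read out with a cell viability assay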
# Description: SANGER: Inhibition of human HCC1143 cell growth in a cell viability assay.
# [35] = test system: IPC-298; experiment: SANGER: Inhibition of human IPC-298 cell growth in a cell viability assay.
# [36] = test system: MDA-MB-468; experiment: cells; conditions: Homo sapiens
# Description: SANGER: Inhibition of human MDA-MB-468 cell growth in a cell viability assay.
# [37] = test system: MFE-296; experiment: SANGER: Inhibition of human MFE-296 cell growth in a cell viability assay.
# [38] = test system: NCI-H1618; experiment: cells; conditions: Homo sapiens;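 further: growth inhibition of human NCI-H1618 cells, measured by a cell viability assay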
# Description: SANGER: Inhibition of human NCI-H1618 cell growth in a cell viability assay.
# [39] = test system: NCI-H1734; experiment: cells; conditions: Homo sapiens;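 further: growth inhibition of human NCI-H1734 cells, read out with a cell viability assay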
# Description: SANGER: Inhibition of human NCI-H1734 cell growth in a cell viability assay.
# [40] = test system: NCI-H2227; experiment: cells; conditions: Homo sapiens;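 further: growth inhibition of the human cell line, read out with a cell viability assay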
# Description: SANGER: Inhibition of human NCI-H2227 cell growth in a cell viability assay.
# [41] = test system: NCI-H838; experiment: cells; conditions: Homo sapiens;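 further: growth inhibition of human NCI-H838 cells, read out by a cell viability assay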
# Description: SANGER: Inhibition of human NCI-H838 cell growth in a cell viability assay.
# [42] = test system: PLC-PRF-5; experiment: cells; conditions: Homo sapiens;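 further: growth inhibition of human PLC-PRF-5 cells, read out with a viability assay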
# Description: SANGER: Inhibition of human PLC-PRF-5 cell growth in a cell viability assay.
# [43] = test system: RT-4; experiment: SANGER: Inhibition of human RT4 cell growth in a cell viability assay.
# [44] = test system: SK-CO-1; experiment: cells; conditions: Homo sapiens;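 further: growth inhibition of SK-CO-1 cells, determined by a viability readout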
# Description: SANGER: Inhibition of human SK-CO-1 cell growth in a cell viability assay.
# [45] = test system: SNG-M; experiment: cells; conditions: Homo sapiens
# Description: SANGER: Inhibition of human SNG-M cell growth in a cell viability assay.
# [46] = test system: SNU-475; experiment: cells; conditions: Homo sapiens
# Description: SANGER: Inhibition of human SNU-475 cell growth in a cell viability assay.
# [47] = test system: C-4-II; experiment: SANGER: Inhibition of human C-4-II cell growth in a cell viability assay.
# [48] = test system: TT; experiment: cells; conditions: Homo sapiens
# Description: SANGER: Inhibition of human TT cell growth in a cell viability assay.
# [49] = test system: CCF-STTG1; experiment: cells; conditions: Homo sapiens;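 further: growth inhibition of human CCF-STTG1 cells, determined with a cell viability read-out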
# Description: SANGER: Inhibition of human CCF-STTG1 cell growth in a cell viability assay.
# [50] = test system: COLO 205; experiment: cells; conditions: Homo sapiens
# Description: SANGER: Inhibition of human COLO-205 cell growth in a cell viability assay.
smiles,measurement,setting,value
COc1cc(Nc2c(C#N)cnc3cc(OCCCN4CCN(C)CC4)c(OC)cc23)c(Cl)cc1Cl [BOSUTINIB],IC50,[1],> 2000 nM
same,IC50,[2],1570 nM
same,IC50,[3],> 2000 nM
same,IC50,[4],> 2000 nM
same,IC50,[5],> 2000 nM
same,IC50,[6],435 nM
same,IC50,[7],> 2000 nM
same,IC50,[8],> 2000 nM
same,IC50,[9],> 2000 nM
same,IC50,[10],> 2000 nM
same,IC50,[11],> 2000 nM
same,IC50,[12],> 2 µM
same,IC50,[13],> 2000 nM
same,IC50,[14],870 nM
same,IC50,[15],> 2 µM
same,IC50,[16],> 2 µM
same,IC50,[17],> 2000 nM
same,IC50,[18],> 2000 nM
same,IC50,[19],> 2 µM
same,IC50,[20],> 2000 nM
same,IC50,[21],> 2 µM
same,IC50,[22],> 2000 nM
CC[C@@]1(O)C(=O)OCc2c1cc1n(c2=O)Cc2cc3ccccc3nc2-1 [CAMPTOTHECIN],IC50,[1],2.55 nM
same,IC50,[2],0.132 nM
same,IC50,[3],3.85 nM
same,IC50,[4],72.8 nM
same,IC50,[5],95.6 nM
same,IC50,[6],0.358 nM
same,IC50,[7],7.7 nM
same,IC50,[8],28.2 nM
same,IC50,[9],0.194 nM
same,IC50,[10],0.529 nM
same,IC50,[11],18.7 nM
same,IC50,[13],> 100 nM
same,IC50,[14],2.51 nM
same,IC50,[17],31.8 nM
same,IC50,[18],14.1 nM
same,IC50,[20],12.2 nM
same,IC50,[22],14.8 nM
Cc1nc(Nc2ncc(C(=O)Nc3c(C)cccc3Cl)s2)cc(N2CCN(CCO)CC2)n1 [DASATINIB],IC50,[23],205 nM
same,IC50,[24],> 1280 nM
same,IC50,[25],> 1280 nM
same,IC50,[26],> 1280 nM
same,IC50,[27],> 1280 nM
same,IC50,[28],> 1280 nM
CCNC(=O)c1noc(-c2cc(C(C)C)c(O)cc2O)c1-c1ccc(CN2CCOCC2)cc1 [LUMINESPIB],IC50,[29],73.3 nM
same,IC50,[30],> 256 nM
same,IC50,[31],123 nM
same,IC50,[32],> 256 nM
same,IC50,[33],246 nM
same,IC50,[34],> 256 nM
same,IC50,[35],96.4 nM
same,IC50,[36],99.9 nM
same,IC50,[37],23.2 nM
same,IC50,[38],> 256 nM
same,IC50,[39],32.3 nM
same,IC50,[40],> 0.256 µM
same,IC50,[41],237 nM
same,IC50,[42],> 256 nM
same,IC50,[43],> 256 nM
same,IC50,[44],79.9 nM
same,IC50,[45],8.56 nM
same,IC50,[46],> 256 nM
same,IC50,[47],122 nM
same,IC50,[48],> 256 nM
same,IC50,[49],2.97 nM
same,IC50,[50],49.2 nM
CO[C@@]12[C@H](COC(N)=O)C3=C(C(=O)C(C)=C(N)C3=O)N1C[C@@H]1N[C@@H]12 [MITOMYCIN],IC50,[29],4810 nM
same,IC50,[30],162 nM
same,IC50,[31],809 nM
same,IC50,[32],2920 nM
same,IC50,[33],1380 nM
same,IC50,[34],1070 nM
same,IC50,[35],1230 nM
same,IC50,[36],345 nM
same,IC50,[37],286 nM
same,IC50,[38],118 nM
same,IC50,[39],137 nM
same,IC50,[40],6.32 µM
same,IC50,[41],1230 nM
same,IC50,[42],4190 nM
same,IC50,[43],1700 nM
same,IC50,[44],202 nM
same,IC50,[45],134 nM
same,IC50,[46],813 nM
same,IC50,[47],104 nM
same,IC50,[48],3680 nM
same,IC50,[49],216 nM
same,IC50,[50],< 62.5 nM
C/C=C(/C)C(=O)O[C@H]1C(C)=C2[C@H]([C@@H]1OC(=O)CCCCCCC)[C@@](C)(OC(C)=O)C[C@H](OC(=O)CCC)[C@@]1(O)[C@H]2OC(=O)[C@@]1(C)O [THAPSIGARGIN],IC50,[29],2.1 nM
same,IC50,[30],37.2 nM
same,IC50,[31],380 nM
same,IC50,[32],28.8 nM
same,IC50,[33],> 512 nM
same,IC50,[34],2.07 nM
same,IC50,[35],6.54 nM
same,IC50,[36],3.98 nM
same,IC50,[37],2.95 nM
same,IC50,[38],10.1 nM
same,IC50,[39],1.48 nM
same,IC50,[40],> 0.512 µM
same,IC50,[41],35.3 nM
same,IC50,[42],91.8 nM
same,IC50,[43],3.74 nM
same,IC50,[44],17 nM
same,IC50,[45],< 2 nM
same,IC50,[46],> 512 nM
same,IC50,[47],20.6 nM
same,IC50,[48],217 nM
same,IC50,[49],67.3 nM
same,IC50,[50],3.15 nM
C[C@]1(c2nc3c(C(N)=O)cccc3[nH]2)CCCN1 [VELIPARIB],IC50,[1],> 5000 nM
same,IC50,[2],> 5000 nM
same,IC50,[3],> 5000 nM
same,IC50,[4],> 5000 nM
same,IC50,[5],> 5000 nM
same,IC50,[6],> 5000 nM
same,IC50,[7],> 5000 nM
same,IC50,[8],> 5000 nM
same,IC50,[9],> 5000 nM
same,IC50,[10],> 5000 nM
same,IC50,[11],> 5000 nM
same,IC50,[12],> 5 µM
same,IC50,[13],> 5000 nM
same,IC50,[14],> 5000 nM
same,IC50,[15],> 5 µM
same,IC50,[16],> 5 µM
same,IC50,[17],> 5000 nM
same,IC50,[18],> 5000 nM
same,IC50,[19],> 5 µM
same,IC50,[20],> 5000 nM
same,IC50,[21],> 5 µM
same,IC50,[22],> 5000 nM
